Converted amounts (≈) assume the structure as drawn. Where two headings read alike, the source gives them in different places.
Key:
[1] = tested on: Mytilus galloprovincialis plantigrade larvae; assay: Mytilus galloprovincialis larvae anti-settlement bioassay; format: in vivo; settings: for settlement of mussel larvae: at 50 µM; for anti-settlement response versus negative control: screening at 50 μM, Dunnett test p < 0.05
Protocol: (§1) For the bioassays, M. galloprovincialis juveniles were collected in intertidal mussel beds during low tides in Memória beach, Matosinhos, Portugal (41°13′59″ N; 8°43′28″ W). Mussel plantigrade larvae (0.5–2 mm) were sorted in a binocular magnifier (Olympus SZX2-ILLT, Tokyo, Japan) and those presenting foot exploring behavior for settlement were selected to the screening bioassays at 50 µM performed in 24-well microplates for 15 h, in the dark at 18 ± 1 °C, according to Almeida et al.. Four well replicates per condition and five competent larvae per well were included. Negative and positive controls were included, namely DMSO (0.1%) and CuSO4 (5 µM) as an efficient antifouling agent. Stock solutions in DMSO (50 mM) were used to prepare test media (50 µM) in filtered seawater (0.1% DMSO). After the exposure period, the anti-settlement bioactivity was determined by the observation of efficiently attached plantigrade larvae considering the existence/absence of produced byssal threads for each test condition.
(§2) Data from the anti-settlement screening were analyzed using a one-way analysis of variance (ANOVA), followed by a Dunnett test against the negative control (p < 0.05). […] Therapeutic ratios (LC50/EC50) were used to evaluate the effectiveness versus toxicity of bioactive compounds. […] The mixed model ANOVA was performed on log10(x + 1)-transformed values from 4 biological replicates, employing the software IBM SPSS Statistics (version 21, SPSS Inc., Chicago, IL, USA).

[2] = Toxicity (LC50, therapeutic ratio) toward mussel plantigrade larvae; format: in vivo; settings: Mytilus galloprovincialis, in vivo, median lethal dose, mussel plantigrades
Protocol: as §1, §2

[3] = tested on: Mytilus galloprovincialis plantigrade larvae; assay: as above; format: in vivo
Protocol: as §1, §2

[4] = tested on: Artemia salina nauplii; assay: Brine shrimp (Artemia salina) lethality test, ecotoxicity; format: in vivo; settings: 48 h; for mortality of Artemia salina nauplii: at 50 µM; for toxicity to A. salina: lowest concentration tested, 25 μM
Protocol: Ecotoxicity of the most promising xanthones to non-target species was assessed using the brine shrimp (Artemia salina) lethality test standard protocol. Newly hatched nauplii I larvae were used for the exposure to the most promising antifouling compounds at 50 and 25 µM. The bioassay was performed in 96-well microplates with eight replicates per condition and 15–20 nauplii per well, including a positive (K2Cr2O7 at 13.6 µM) and negative control (0.1% DMSO). The percentage of nauplii mortality for each condition was determined at the end of the exposure period (48 h).

[5] = tested on: Balanus amphitrite larvae; settings: cited from earlier work; for EC50, larval settlement of Balanus amphitrite / toxicity effects on the barnacle larvae: in vivo
[6] = tested on: Mytilus galloprovincialis plantigrade larvae; settings: cited from earlier work
[7] = tested on: Mytilus galloprovincialis plantigrade larvae; settings: cited from earlier work; remark: listed apart in the source
[8] = tested on: Artemia salina nauplii; settings: cited from earlier work
[9] = tested on: Roseobacter litoralis CECT 5395; assay: Biofilm-forming marine bacteria growth bioassay; format: cell-based; settings: for inhibition at 12.5 µM: Roseobacter litoralis, read-out: growth inhibition of R. litoralis
Protocol: The experimental procedure was performed as previously reported by Almeida et al.. […] Bacterial growth inhibition in the presence of the compounds was determined in quadruplicate at 600 nm using a microplate reader (Biotek Synergy HT, Winooski, VT, USA). Negative and positive controls used were a solution of marine broth with 0.1% DMSO, and a stabilized solution of marine broth with penicillin-streptomycin-neomycin, respectively.

[10] = tested on: Escherichia coli; parameters: method as in PMID 23172582; settings: in words; cited from earlier work
[11] = tested on: brine shrimp (Artemia salina); parameters: method as in PMID 23172582; settings: in words; cited from earlier work
[12] = Mytilus galloprovincialis, 15 h, concentration that inhibited 50% of larval settlement of mussel plantigrades, 15 h exposure, read-out: EC50
[13] = Mytilus galloprovincialis, 15 h, concentration that inhibited 50% of larval settlement of mussel plantigrades, 15 h exposure, read-out: EC50 (μg.mL^−1)
[14] = other: larvae immersed in test media in filtered seawater
[15] = Mytilus galloprovincialis, 15 h
[16] = Mytilus galloprovincialis, 15 h, read-out: EC50 (μg.mL^−1)
[17] = larval settlement of mussel plantigrades

## COc1cc(CN2CCCCC2)c2c(=O)c3ccccc3oc2c1OC [Compound 23, 3,4-dimethoxy-1-(piperidin-1-ylmethyl)-9H-xanthen-9-one]
[1]; [12]
  EC50: ~4 µM
[1]; [13]
  EC50: 1.26 µg/mL
[1]; 15 h
  settlement of mussel larvae: 20%
[1]; concentration that inhibited 50% of larval settlement of mussel plantigrades, 15 h exposure, read-out: EC50
  EC50: 3.57 µM
[1]
  anti-settlement response versus negative control: highly significant anti-settlement responses
[2]; [14]
  LC50 at 15 h: > 100 µM
[3]; in vivo
  toxicity to the macrofouling species (mussel larvae): low toxicity
[4]
  mortality of Artemia salina nauplii: < 10%

## COc1cc(CN2CCc3c(N)cccc3C2)c2c(=O)c3ccccc3oc2c1OC [Compound 21, 1-((5-amino-3,4-dihydroisoquinolin-2(1H)-yl)methyl)-3,4-dimethoxy-9H-xanthen-9-one]
[1]; [12]
  EC50: 7.28 µM
[1]; [13]
  EC50: 3.03 µg/mL
[1]; 15 h
  settlement of mussel larvae: 20%
[1]
  anti-settlement response versus negative control: highly significant anti-settlement responses
[2]; [14]
  LC50 at 15 h: > 100 µM
[3]; in vivo
  toxicity to the macrofouling species (mussel larvae): low toxicity
[4]
  mortality of Artemia salina nauplii: < 10%

## COc1cc(CO)c2c(=O)c3ccccc3oc2c1OC [Compound 8, 1-(hydroxymethyl)-3,4-dimethoxy-9H-xanthen-9-one]
[1]; [12]
  EC50: 21.8 µM
[1]; [13]
  EC50: 6.25 µg/mL
[1]; 15 h
  settlement of mussel larvae: 35%
[1]
  anti-settlement response versus negative control: highly significant anti-settlement responses
[2]; [14]
  LC50 at 15 h: > 100 µM
[3]; in vivo
  toxicity to the macrofouling species (mussel larvae): low toxicity
[4]
  mortality of Artemia salina nauplii: < 10%

## COc1cc(C)c2c(=O)c3ccccc3oc2c1OC [Compound 1, 3,4-dimethoxy-1-methyl-9H-xanthen-9-one]
[1]; [15]
  EC50: 11.8 µM
[1]; [16]
  EC50: 3.19 µg/mL
[1]
  anti-settlement response versus negative control: highly significant anti-settlement responses
[2]
  LC50 at 15 h: > 100 µM
[3]; in words
  toxicity to the macrofouling species (mussel larvae): low toxicity
[4]
  toxicity to A. salina: significant toxicity

## COC(=O)c1cc(O)cc2oc3c(Cl)c(C)c(Cl)c(O)c3c(=O)c12 [penicilixanthone]
[5]
  EC50, larval settlement of B. amphitrite: 17.1 µg/mL

## COc1ccc2c(=O)c3c(C)c(Cl)c(OC)c(OC)c3oc2c1 [Compound 3, 2-chloro-3,4,6-trimethoxy-1-methyl-9H-xanthen-9-one]
[1]
  anti-settlement response versus negative control: nullified the significant anti-settlement effect

## COc1ccc2c(=O)c3c(CCl)cc(OC)c(OC)c3oc2c1 [Compound 4, 1-(chloromethyl)-3,4,6-trimethoxy-9H-xanthen-9-one]
[1]; [12]
  EC50: 16.1 µM
[1]; [13]
  EC50: 5.41 µg/mL
[1]; 15 h
  settlement of mussel larvae: 20%
[1]
  anti-settlement response versus negative control: highly significant anti-settlement responses
[2]; [14]
  LC50 at 15 h: > 100 µM
[3]; in vivo
  toxicity to the macrofouling species (mussel larvae): low toxicity
[4]
  mortality of Artemia salina nauplii: < 10%

## O=c1c2ccccc2oc2c(O)c(O)ccc12 [3,4-Dihydroxyxanthone]
[6]; in words
  activity toward the settlement of Mytilus galloprovincialis larvae: exhibited in vivo activity
[7]; in words
  toxicity to the macrofouling species (mussel larvae): low toxicity
[8]
  ecotoxicity toward A. salina, mortality: < 10%

## COc1cc(CNCCN2CCOCC2)c2c(=O)c3ccccc3oc2c1OC [Compound 16, 3,4-dimethoxy-1-(((2-morpholinoethyl)amino)methyl)-9H-xanthen-9-one]
[1]; [12]
  EC50: 17.5 µM
[1]; [13]
  EC50: 6.98 µg/mL
[1]; 15 h
  settlement of mussel larvae: 0%
[1]
  anti-settlement response versus negative control: highly significant anti-settlement responses
[2]; [14]
  LC50 at 15 h: > 100 µM
[3]; in vivo
  toxicity to the macrofouling species (mussel larvae): low toxicity
[9]; R. litoralis, concentrations between 2 and 32 µM (Figure S1)
  antibacterial bioactivity in concentration–response study: not confirmed
[9]; CECT5395, screening at 12.5 µM, 24 h
  inhibition at 12.5 µM: > 30%
[4]
  mortality of Artemia salina nauplii: < 10%

## N#Cc1c(-c2ccc(Cl)cc2)[nH]c(C(F)(F)F)c1Br [ECONEA]
[6]; [17]
  EC50: 4.01 µM
  EC50 (μg.mL^−1): 1.40 µg/mL (≈ 4.01 µM)
[7]; median lethal dose, mussel plantigrades
  LC50: 108 µM
[8]; at the same concentration range (25-50 µM)
  mortality of Artemia salina: 100%

## COc1cc(CN2CCN(CCO)CC2)c2c(=O)c3ccccc3oc2c1OC [Compound 19, 1-((4-(2-hydroxyethyl)piperazin-1-yl)methyl)-3,4-dimethoxy-9H-xanthen-9-one]
[1]; [12]
  EC50: 53.9 µM
[1]; [13]
  EC50: 21.5 µg/mL
[1]; 15 h
  settlement of mussel larvae: 10%
[1]
  anti-settlement response versus negative control: highly significant anti-settlement responses
[2]; [14]
  LC50 at 15 h: > 100 µM
[3]; in vivo
  toxicity to the macrofouling species (mussel larvae): low toxicity
[4]
  mortality of Artemia salina nauplii: < 10%

## COc1ccc2c(=O)c3c(C)cc(OC)c(OC)c3oc2c1 [Compound 2, 3,4,6-trimethoxy-1-methyl-9H-xanthen-9-one]
[1]; [15]
  EC50: 27.2 µM
[1]; [16]
  EC50: 8.15 µg/mL
[1]
  anti-settlement response versus negative control: highly significant anti-settlement responses
[2]
  LC50 at 15 h: > 100 µM
[3]; in words
  toxicity to the macrofouling species (mussel larvae): low toxicity
[4]
  toxicity to A. salina: significant toxicity

## COc1cc2c(c3c(=O)c4c(OC)ccc(O)c4oc13)[C@@H]1C=CO[C@@H]1O2 [methoxysterigmatocystin]
[5]
  EC50, larval settlement of Balanus amphitrite: < 0.125 µg/mL
  toxicity effects on the barnacle larvae: induced paralyzing effects

## COc1cc(C(Br)Br)c2c(=O)c3ccccc3oc2c1OC [Compound 6, 1-(dibromomethyl)-3,4-dimethoxy-9H-xanthen-9-one]
[1]; [15]
  EC50: 22.8 µM
[1]; [16]
  EC50: 9.75 µg/mL
[1]
  anti-settlement response versus negative control: highly significant anti-settlement responses
[2]
  LC50 at 15 h: > 100 µM
[3]; in words
  toxicity to the macrofouling species (mussel larvae): low toxicity
[9]; CECT5395, 24 h
  inhibition at 12.5 µM: > 30%
[4]
  mortality of Artemia salina nauplii: < 10%

## COc1cc2c(c3oc4cccc(O)c4c(=O)c13)[C@@H]1C=CO[C@@H]1O2 [sterigmatocystin]
[5]
  EC50, larval settlement of Balanus amphitrite: < 0.125 µg/mL
  toxicity effects on the barnacle larvae: induced paralyzing effects

## COc1ccc2c(=O)c3c(CBr)cc(OC)c(OC)c3oc2c1 [Compound 5, 1-(bromomethyl)-3,4,6-trimethoxy-9H-xanthen-9-one]
[1]; 15 h
  settlement of mussel larvae: 45%

## COC(=O)c1cc(OC)c2c(=O)c3c(O)cc(C)cc3oc2c1 [yicathin B]
[10]
  antimicrobial activity against Escherichia coli: active
[11]
  brine shrimp (Artemia salina) toxicity: weak

Source: publication PMC8618441, “From Natural Xanthones to Synthetic C-1 Aminated 3,4-Dioxygenated Xanthones as Optimized Antifouling Agents” (Marine Drugs, 2021)
